From the supplement of paper PMC10307832

Experiments:
Experiment in all cases: relative viability (nuclei count vs DMSO), 5 days (fraction); higher = more cells survive
EHT 1864 + Olaparib = compound: C1COCCN1CC2=CC(=O)C(=CO2)OCCCCCSC3=C4C=CC(=CC4=NC=C3)C(F)(F)F [EHT 1864] + O=C(c1cc(Cc2n[nH]c(=O)c3ccccc23)ccc1F)N1CCN(C(=O)C2CC2)CC1 [Olaparib] (partner 8 µM)
Procedure, shortened: (§1)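 Each reported value is a median over duplicate plates. It expresses relative viability: treated-well nuclei count divided by vehicle-well nuclei count. Lung cancer cell lines in 1536-well plates were dosed by pin tool a day after seeding, alone with one drug or with a fixed anchor-drug dose plus five library-drug doses (not always all listed) in √10 steps, and nuclei were counted after 5 days.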

EHT 1864 + Decitabine = compound: C1COCCN1CC2=CC(=O)C(=CO2)OCCCCCSC3=C4C=CC(=CC4=NC=C3)C(F)(F)F [EHT 1864] + Nc1ncn([C@H]2C[C@H](O)[C@@H](CO)O2)c(=O)n1 [Decitabine] (partner 2 µM)
Procedure, shortened: as §1

EHT 1864 + AZD7762 = compound: C1COCCN1CC2=CC(=O)C(=CO2)OCCCCCSC3=C4C=CC(=CC4=NC=C3)C(F)(F)F [EHT 1864] + NC(=O)Nc1cc(-c2cccc(F)c2)sc1C(=O)N[C@H]1CCCNC1 [AZD7762] (partner 0.2 µM)
Procedure, shortened: as §1

EHT 1864 + Lapatinib = compound: C1COCCN1CC2=CC(=O)C(=CO2)OCCCCCSC3=C4C=CC(=CC4=NC=C3)C(F)(F)F [EHT 1864] + CS(=O)(=O)CCNCc1ccc(-c2ccc3ncnc(Nc4ccc(OCc5cccc(F)c5)c(Cl)c4)c3c2)o1 [Lapatinib] (partner 2 µM)
Procedure, shortened: as §1

Cell Line	relative viability (EHT 1864 + Olaparib; first compound 0.04 µM)	relative viability (EHT 1864 + Olaparib; first compound 0.1265 µM)	relative viability (EHT 1864 + Olaparib; first compound 0.4 µM)	relative viability (EHT 1864 + Olaparib; first compound 1.265 µM)	relative viability (EHT 1864 + Olaparib; first compound 4 µM)	relative viability (EHT 1864 + Decitabine; first compound 0.04 µM)	relative viability (EHT 1864 + Decitabine; first compound 0.1265 µM)	relative viability (EHT 1864 + Decitabine; first compound 0.4 µM)	relative viability (EHT 1864 + Decitabine; first compound 1.265 µM)	relative viability (EHT 1864 + Decitabine; first compound 4 µM)	relative viability (EHT 1864 + AZD7762; first compound 0.04 µM)	relative viability (EHT 1864 + AZD7762; first compound 0.1265 µM)	relative viability (EHT 1864 + AZD7762; first compound 0.4 µM)	relative viability (EHT 1864 + AZD7762; first compound 1.265 µM)	relative viability (EHT 1864 + AZD7762; first compound 4 µM)	relative viability (EHT 1864 + Lapatinib; first compound 0.04 µM)	relative viability (EHT 1864 + Lapatinib; first compound 0.4 µM)	relative viability (EHT 1864 + Lapatinib; first compound 1.265 µM)	relative viability (EHT 1864 + Lapatinib; first compound 4 µM)	relative viability (EHT 1864 + Lapatinib; first compound 0.1265 µM)
LCLC-97TM1	0.347	0.346	0.328	0.326	0.444	0.271	0.237	0.22	0.235	0.271	0.275	0.257	0.152	0.223	0.234	1.03	0.527	1.22	1.12	
LK-2	0.518	0.608	0.608	0.551	0.68	0.292	0.312	0.169	0.333	0.265	0.462		0.296	0.443	0.286	1.05	0.911	1.03	0.881	0.797
LOU-NH91	0.917	0.858	0.911	0.949	0.885	0.793	0.754	0.842	0.804	0.754	0.746	0.67	0.759	0.735	0.755	0.769	0.802	0.81	0.797	0.746
LU99A	0.26	0.262	0.25	0.284	0.274	0.843	0.757	0.827	0.903	0.872	0.445	0.203	0.359	0.308	0.403	1.02	0.873	1.17	0.949	0.64
LXF-289	1.12	0.963	1.02	0.953	0.97	0.431	0.351	0.388	0.385	0.361	1.14	1.01	1.03	1.07	1.1	0.883	0.883	0.851	0.799	0.821
NCI-H23	0.295	0.271	0.284	0.296	0.32	0.297	0.29	0.314	0.343	0.393	0.203	0.231	0.223	0.198	0.221	0.927	1.05	0.938	0.928	
NCI-H322M	0.704	0.822	0.811	0.782	0.879	0.659	0.692	0.698	0.679	0.724	0.601	0.501	0.589	0.577	0.667	0.613	0.634	0.522	0.629	0.527
NCI-H358	0.626	0.594	0.574	0.551	0.548	0.238	0.241	0.212	0.263	0.192	0.558	0.587	0.536	0.556	0.456	0.477	0.441	0.413	0.434	
NCI-H460	0.461	0.387	0.389	0.363	0.351		0.405	0.495	0.43	0.255	0.642	0.541	0.635	0.436	0.568	0.891	0.975	0.845	0.885	0.897
NCI-H596	0.773	0.719	0.8	0.781	0.777	0.937	1.05	1.14	1.09	1.24	1.21	1.04	1.1	1.04	1.46	1.16	1.12	1.01	1.09	0.968
NCI-H647	0.493	0.503	0.539	0.312	0.613	0.32	0.288	0.311	0.453	0.404	0.621	0.296	0.661	0.44	0.461	0.856	0.923	0.957	1.14	0.842
NCI-H650	0.425	0.386	0.383	0.39	0.413	0.372	0.312	0.356	0.356	0.34	0.994	0.612	1.13	1.1	1.06	0.797	1.33	1.07	0.989	
NCI-H727	1.07	0.75	0.459	0.529	0.524	0.98	0.639	0.85	0.811	0.914	0.579	0.693	0.587	0.555	0.794	0.841	0.635		0.881	0.743
NCI-H838	0.743	0.726	0.788	0.79	0.807	0.472	0.438	0.442	0.445	0.431	0.959	0.895	0.886	0.872	0.959	0.91	0.979	0.938	0.932	0.799
NCI-H1355	0.718	0.657	0.772	0.727	0.706	0.391	0.326	0.355	0.369	0.328	0.876	0.65	0.725	0.688	0.68	1.02	0.889	1.02	1.04	0.819
NCI-H1395	0.472	0.548	0.48	0.488	0.459	0.722	0.676	0.709	0.657	0.673	0.394	0.37	0.389	0.437	0.436	1.04	1.05	1.01	0.861	0.877
NCI-H1437	0.621	0.587	0.622	0.523	0.523	0.607	0.523	0.542	0.566	0.518	1.1	1.1	1.09	1.02	0.889	0.793	0.678	0.636	0.62	0.723

Cell Line	relative viability (EHT 1864 + Olaparib; first compound 0.04 µM)	relative viability (EHT 1864 + Olaparib; first compound 0.1265 µM)	relative viability (EHT 1864 + Olaparib; first compound 0.4 µM)	relative viability (EHT 1864 + Olaparib; first compound 1.265 µM)	relative viability (EHT 1864 + Olaparib; first compound 4 µM)	relative viability (EHT 1864 + Decitabine; first compound 0.04 µM)	relative viability (EHT 1864 + Decitabine; first compound 0.1265 µM)	relative viability (EHT 1864 + Decitabine; first compound 0.4 µM)	relative viability (EHT 1864 + Decitabine; first compound 1.265 µM)	relative viability (EHT 1864 + Decitabine; first compound 4 µM)	relative viability (EHT 1864 + AZD7762; first compound 0.04 µM)	relative viability (EHT 1864 + AZD7762; first compound 0.1265 µM)	relative viability (EHT 1864 + AZD7762; first compound 0.4 µM)	relative viability (EHT 1864 + AZD7762; first compound 1.265 µM)	relative viability (EHT 1864 + AZD7762; first compound 4 µM)	relative viability (EHT 1864 + Lapatinib; first compound 0.04 µM)	relative viability (EHT 1864 + Lapatinib; first compound 0.4 µM)	relative viability (EHT 1864 + Lapatinib; first compound 1.265 µM)	relative viability (EHT 1864 + Lapatinib; first compound 4 µM)	relative viability (EHT 1864 + Lapatinib; first compound 0.1265 µM)
NCI-H1651	0.165	0.184	0.177	0.174	0.191	0.55	0.695	0.631	0.652	0.594	0.396	0.439	0.469	0.482	0.556	0.856	0.843	0.824	0.912	0.788
NCI-H1666	0.732	0.756	0.73	0.839	0.775	0.755	0.742	0.712	0.768	0.865	0.826	0.747	0.915	0.997	1.1	0.822	0.584	0.775	0.841	0.484
NCI-H1734	0.71	0.64	0.619	0.679	0.635	0.495	0.552	0.478	0.511	0.514	0.65	0.427	0.537	0.611	0.618	1.08	1.09	1.01	1.12	0.86
NCI-H1755	0.912	0.817	0.822	0.817	0.829	0.803	0.685	0.702	0.707	0.755	0.438	0.424	0.405	0.402	0.456	1.08	1.04	0.998	1.05	0.866
NCI-H1792	0.466		0.339	0.359	0.416	0.506		0.515	0.567	0.601	0.746		0.733	0.592	0.738	0.864	0.926	0.882	0.928	0.777
NCI-H1793	0.797	0.736	0.971	0.681	0.874	0.47	0.466	0.506	0.56	0.614	0.609	0.458	0.496	0.193	0.298		0.667	0.602	0.638	0.543
NCI-H1915	0.287		0.251	0.257	0.257	0.259		0.265	0.26	0.265	0.728		0.681	0.711	0.719	1.03	0.993	0.937	0.902	
NCI-H1944	0.376		0.392	0.416	0.367	0.43		0.429	0.433	0.417	0.5		0.511	0.563	0.665	0.907	0.916	0.858	0.817	
NCI-H1975	0.812	0.828	0.781	0.791	0.719	0.41	0.411	0.404	0.384	0.398	0.733	0.717	0.676	0.642	0.68	0.868	0.802	0.837	0.856	0.9
NCI-H1993	1.17		0.971	0.966	1.05	0.552		0.598	0.645	0.57	0.71		0.827	0.775	0.83	0.918	0.806	0.864	0.858	0.812
NCI-H2085	0.783	0.762	0.754	0.732	0.713	0.604	0.551	0.588	0.656	0.555	0.962	0.645	0.973	0.987	0.942	0.809	0.807	0.716	0.744	0.678
NCI-H2087	0.545		0.468	0.545	0.534	0.253		0.267	0.287	0.3	1.25		1.2	1.25	1.23	1.03	1.01	0.614	0.789	0.485
NCI-H2126	0.916	0.926	0.887	0.882	0.915	0.652	0.572	0.547	0.62	0.566	1.02	0.866	0.95	0.93	0.957	0.779	0.759	0.798	0.697	0.723
NCI-H2170	0.595	0.628	0.61	0.581	0.547	0.488	0.451	0.488	0.473	0.467	0.77	0.764	0.9	0.86	0.963	0.272	0.283	0.239	0.271	0.268
NCI-H2347	0.624	0.452	0.53	0.541	0.402	0.571	0.488	0.675	0.64	0.559	0.776	0.654	0.621	0.727	0.792	0.961	0.814	0.793	1.12	0.638
NCI-H2405	0.895	0.815	0.912	0.788	0.853	0.832	0.717	0.785	0.736	0.772	0.8	0.657	0.728	0.687	0.697	1.1	1.11		1.13	1.02
